According to the NIST ThermoML archive (doi:10.1016/j.tca.2014.08.016):

Assay: xn = mol fraction of the nth substance listed
Conditions: Liquid; for mass density: Buoyancy - hydrostatic balance with magnetic suspension - one sinker; for viscosity: Falling or rolling sphere viscometry

C=CCCCCCC [oct-1-ene] + C=CCCCC
Conditions | mass density [kg/m3] | viscosity [mPa·s]
298.15 K, 98 kPa, x1 = 0.2 | 685.08 | 0.317
298.15 K, 98 kPa, x1 = 0.4823 | 696.22 | 0.36
298.15 K, 98 kPa, x1 = 0.6923 | 705.6 | 0.411
298.15 K, 24510 kPa, x1 = 0.2 | 709.99 | 0.395
298.15 K, 24510 kPa, x1 = 0.4823 | 720.99 | 0.444
298.15 K, 24510 kPa, x1 = 0.6923 | 729.5 | 0.511
298.15 K, 49030 kPa, x1 = 0.2 | 727.77 | 0.473
298.15 K, 49030 kPa, x1 = 0.4823 | 736.94 | 0.537
298.15 K, 49030 kPa, x1 = 0.6923 | 745.31 | 0.618
298.15 K, 98060 kPa, x1 = 0.2 | 754.11 | 0.644
298.15 K, 98060 kPa, x1 = 0.4823 | 765.67 | 0.737
298.15 K, 98060 kPa, x1 = 0.6923 | 771.37 | 0.859
298.15 K, 196130 kPa, x1 = 0.2 | 792.06 | 1.053
298.15 K, 196130 kPa, x1 = 0.4823 | 801.39 | 1.225
298.15 K, 196130 kPa, x1 = 0.6923 | 806.92 | 1.47
302.9 K, 98 kPa, x1 = 0.6923 | 703 | 0.396
303.67 K, 98 kPa, x1 = 0.4823 | 692.48 | 0.347
305.25 K, 98 kPa, x1 = 0.2 | 679.54 | 0.304
312.9 K, 98 kPa, x1 = 0.6923 | 696.34 | 0.36
313.35 K, 98 kPa, x1 = 0.4823 | 685.54 | 0.319
313.65 K, 98 kPa, x1 = 0.2 | 672.69 | 0.283
322.39 K, 196130 kPa, x1 = 0.6923 | 796.19 | 1.133
322.63 K, 98060 kPa, x1 = 0.6923 | 759.23 | 0.688
322.7 K, 49030 kPa, x1 = 0.6923 | 730.47 | 0.497
322.74 K, 24510 kPa, x1 = 0.6923 | 712.73 | 0.41
322.86 K, 98 kPa, x1 = 0.6923 | 688.08 | 0.325
322.95 K, 196130 kPa, x1 = 0.2 | 781.57 | 0.842
323.14 K, 98060 kPa, x1 = 0.2 | 743.21 | 0.525
323.23 K, 24510 kPa, x1 = 0.2 | 692.21 | 0.323
323.24 K, 49030 kPa, x1 = 0.2 | 714.09 | 0.388
323.28 K, 98 kPa, x1 = 0.2 | 664.43 | 0.256
323.53 K, 196130 kPa, x1 = 0.4823 | 791.05 | 0.962
323.71 K, 98060 kPa, x1 = 0.4823 | 753.36 | 0.589
323.72 K, 49030 kPa, x1 = 0.4823 | 723.85 | 0.434
323.73 K, 24510 kPa, x1 = 0.4823 | 705.99 | 0.358
323.86 K, 98 kPa, x1 = 0.4823 | 678.22 | 0.285
354.41 K, 196130 kPa, x1 = 0.2 | 767.99 | 0.675
354.53 K, 196130 kPa, x1 = 0.4823 | 778.99 | 0.757
354.58 K, 98060 kPa, x1 = 0.4823 | 737.84 | 0.478
354.59 K, 49030 kPa, x1 = 0.4823 | 705.39 | 0.354
354.61 K, 24510 kPa, x1 = 0.4823 | 683.97 | 0.291
354.84 K, 98060 kPa, x1 = 0.2 | 727.23 | 0.428
355.02 K, 24510 kPa, x1 = 0.2 | 671.58 | 0.259
355.04 K, 49030 kPa, x1 = 0.2 | 694.07 | 0.317
355.16 K, 98060 kPa, x1 = 0.6923 | 741.82 | 0.544
355.27 K, 49030 kPa, x1 = 0.6923 | 713.02 | 0.398
355.35 K, 196130 kPa, x1 = 0.6923 | 782.46 | 0.876
355.44 K, 24510 kPa, x1 = 0.6923 | 691.53 | 0.327
390.42 K, 196130 kPa, x1 = 0.4823 | 763 | 0.614
390.6 K, 196130 kPa, x1 = 0.6923 | 764.29 | 0.684
390.61 K, 98060 kPa, x1 = 0.4823 | 718.3 | 0.392
390.66 K, 24510 kPa, x1 = 0.6923 | 668.32 | 0.258
390.68 K, 98060 kPa, x1 = 0.6923 | 722.16 | 0.433
390.73 K, 24510 kPa, x1 = 0.4823 | 661.95 | 0.233
390.76 K, 49030 kPa, x1 = 0.4823 | 683.17 | 0.286
390.89 K, 49030 kPa, x1 = 0.6923 | 690.6 | 0.319
395.05 K, 196130 kPa, x1 = 0.2 | 750.63 | 0.535
395.31 K, 98060 kPa, x1 = 0.2 | 706.62 | 0.345
395.33 K, 49030 kPa, x1 = 0.2 | 668.64 | 0.253
395.52 K, 24510 kPa, x1 = 0.2 | 641.62 | 0.205
432.98 K, 196130 kPa, x1 = 0.2 | 733.67 | 0.451
433.17 K, 196130 kPa, x1 = 0.6923 | 744.1 | 0.549
433.2 K, 98060 kPa, x1 = 0.6923 | 698.66 | 0.349
433.33 K, 49030 kPa, x1 = 0.6923 | 664.02 | 0.255
433.38 K, 24510 kPa, x1 = 0.6923 | 641.38 | 0.204
433.51 K, 98060 kPa, x1 = 0.2 | 682.68 | 0.289
433.58 K, 49030 kPa, x1 = 0.2 | 642.37 | 0.213
433.62 K, 24510 kPa, x1 = 0.2 | 614.08 | 0.169
435.46 K, 196130 kPa, x1 = 0.4823 | 741.63 | 0.489
435.49 K, 24510 kPa, x1 = 0.4823 | 631.36 | 0.184
435.61 K, 98060 kPa, x1 = 0.4823 | 693.82 | 0.318
435.7 K, 49030 kPa, x1 = 0.4823 | 656.28 | 0.232
467.82 K, 196130 kPa, x1 = 0.4823 | 725.29 | 0.447
467.87 K, 196130 kPa, x1 = 0.2 | 715.63 | 0.403
467.95 K, 49030 kPa, x1 = 0.4823 | 636.15 | 0.207
467.96 K, 24510 kPa, x1 = 0.4823 | 610.74 | 0.162
468.04 K, 98060 kPa, x1 = 0.2 | 661.09 | 0.262
468.06 K, 98060 kPa, x1 = 0.4823 | 675.8 | 0.285
468.07 K, 49030 kPa, x1 = 0.2 | 620.58 | 0.19
468.18 K, 24510 kPa, x1 = 0.2 | 589.18 | 0.148
469.83 K, 98060 kPa, x1 = 0.6923 | 677.9 | 0.311
469.84 K, 196130 kPa, x1 = 0.6923 | 725.11 | 0.482
470.05 K, 49030 kPa, x1 = 0.6923 | 641.64 | 0.224
470.16 K, 24510 kPa, x1 = 0.6923 | 618.99 | 0.176
